# In patent publication US5229381A, “Substituted azetidinones as anti-inflammatory and antidegenerative agents” (Merck & Co., Inc., priority 1991, dated 1993):
# Target: T1, human polymorphonuclear leukocyte elastase (Homo sapiens, UniProt P08246)
# T1 construct: Crude extract of human polymorphonuclear leukocytes (PMN) containing elastase activity; endogenous in cells; host or cells: human polymorphonuclear leukocytes (crude extract)
# T1 sequence (P08246 30-247 limits assumed): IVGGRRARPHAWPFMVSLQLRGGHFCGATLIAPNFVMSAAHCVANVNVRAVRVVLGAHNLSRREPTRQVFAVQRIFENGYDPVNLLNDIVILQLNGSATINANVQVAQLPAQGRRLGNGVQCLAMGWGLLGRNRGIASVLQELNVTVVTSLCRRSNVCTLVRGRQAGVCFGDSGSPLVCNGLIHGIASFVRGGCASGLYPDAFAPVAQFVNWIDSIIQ
# Experiment: Inhibition of human polymorphonuclear leukocyte (granulocyte) elastase via hydrolysis of Boc-AAPAN or Boc-AAPVN
# Type: biochemical
# Settings: Table I; 2 min after time zero; crude PMN extract, pH 7.5
# Procedure: Enzyme Assays for the Inhibition of Human Polymorphonuclear Leukocyte Elastase Via Hydrolysis of N-t-Boc-alanyl-alanyl-prolylalanine-p-nitroanilide (Boc-AAPAN) or N-t-Boc-alanyl-prolylvaline-p-nitroanilide (Boc-AAPVN) Reagent:
# 0.05M TES (N-tris[hydroxymethyl]methyl-2-amino-ethanesulfonic acid) Buffer, pH 7.5.
# 0.2 mM Boc-AAPAN or Boc-AAPVN.
# To prepare substrate, the solid was first dissolved in 10.0 ml DMSO. Buffer at pH 7.5 was then added to a final volume of 100 ml.
# Crude extract of human polymorphonuclear leukocytes (PMN) containing elastase activity.
# Inhibitors (azetidinones) to be tested dissolved in DMSO just before use.
# To 1.0 ml of 0.2 mM Boc-AAPAN in a cuvette, 0.01-0.1 ml of DMSO with or without inhibitor was added. After mixing, a measurement was taken at 410 mμ to detect any spontaneous hydrolysis due to presence of test compound. 0.05 Milliliters of PMN extract was then added and the ΔOD/min at 410 mμ was measured and recorded. Beckman model 35 spectrophotometer was used.
# Results were also expressed as Ki, the micromolar concentration of the inhibitor (μM) giving 50% of the control enzyme activity; or as ^k obs/I which is the second order rate constant in per mole per second for inactivation of the enzyme.
# The elastase activity in the crude PMN extract may vary from one preparation to another. A control of each new batch is run, and the volume added in the assay procedure is adjusted according to activity.
row,SMILES,"ID50, effective dosage for 50% inhibition of the enzyme activity two minutes after time zero [µg/mL]"
1,"CCCC1C(=O)N(C(C)=O)C1OC(C)=O (centres unmarked) [Table I: H; n-propyl; OCOCH3; COCH3, 1-acetyl-4-acetoxy-3-n-propylazetidin-2-one]",10
2,CCC1C(=O)NC1OC(C)=O (centres unmarked) [Table I: H; C2 H5; OCOCH3; H],15000

# Same assay, conditions: Table I; read-out: Ki, concentration of the inhibitor giving 50% of the control enzyme activity
row,SMILES,Ki [nM]
1,CCOC(=O)N1C(=O)[C@H](CC)[C@H]1Oc1ccc(C(=O)O)cc1 (relative stereo),2100
2,CC[C@H]1C(=O)N(S(=O)(=O)c2ccc(C)cc2)[C@H]1C(=O)OCc1ccc(C(=O)O)cc1 (relative stereo),4200
3,CCC1C(=O)N(C(=O)c2ccccc2)C1C(C)=O (stereo not drawn) [Table I: H; C2 H5 (trans); COCH3; COPh],340
4,CC[C@H]1C(=O)N(C(=O)c2ccccc2)[C@H]1OC(C)=O (relative stereo) [Table I: H; C2 H5 (cis); OCOCH3; COPh],140
5,CC[C@H]1C(=O)N(C(C)=O)[C@@H]1Oc1ccc(C(=O)O)cc1 (relative stereo),3400
6,CC[C@H]1C(=O)N(C(=O)NC)[C@@H]1Oc1ccc(C(=O)O)cc1 (relative stereo),16500

# Same assay, conditions: pH 7.5, Table I; read-out: kobs/I, second order rate constant of inactivation of the enzyme
row,kinact/KI [M⁻¹ s⁻¹],SMILES
1,346,CCOC(=O)N1C(=O)[C@H](CC)[C@H]1OC(C)C(=O)O (relative stereo)
2,1000,CCOC(=O)N1C(=O)[C@H](CC)[C@H]1OCC(=O)NCC(=O)O (relative stereo)

# Same assay, conditions: pH 7.5, Table II, (per mole per second); read-out: kobs/I, second order rate constant of inactivation of the enzyme
row,SMILES,kinact/KI [M⁻¹ s⁻¹]
1,CCC1(CC)C(=O)N(C(=O)NCc2ccccc2)C1Oc1ccc([C@H](NC(C)=O)C(=O)O)cc1 (some centres unmarked) [Table II: C2 H5; C2 H5; drawing 39; CH2 Ph],2420
2,CCC1(CC)C(=O)N(C(=O)NCc2ccccc2)C1Oc1cccc(C(=O)NCc2ccccc2)c1 (centres unmarked),3050
3,CCC1(COC)C(=O)N(C(=O)NCc2ccc(-c3ccccc3)cc2)C1Oc1ccc(C(=O)O)cc1 (centres unmarked),44500
4,COC1C(=O)N(C(=O)NCc2ccc3ccccc3c2)C1c1ccc(C(=O)O)cc1 (centres unmarked) [Table II: H; OMe; Ph-4-COOH; CH2-2-Naph],1340
5,O=C(O)c1ccc(OC2N(C(=O)NCc3ccccc3)C(=O)C23CCCC3)cc1 (centres unmarked),1900
6,CCC1(C)C(=O)N(C(=O)NC(C)c2ccccc2)C1Oc1ccc(C(=O)O)cc1 (centres unmarked),15000
7,CCC1(CC)C(=O)N(C(=O)NCc2ccccc2)C1Oc1ccc(C(=O)NS(=O)(=O)c2ccc(Cl)cc2)cc1 (centres unmarked) [Table II: C2 H5; C2 H5; drawing 38; CH2 Ph],6300
8,CCC1(CC)C(=O)N(C(=O)NCc2ccccc2)C1Oc1ccc2cc(C(=O)O)ccc2c1 (centres unmarked),5560
9,CCC1(COC)C(=O)N(C(=O)NCc2ccc3ccccc3c2)C1Oc1ccc(C(=O)O)cc1 (centres unmarked),50000
10,CCC1(CC)C(=O)N(C(=O)NCc2ccccc2)C1Oc1ccc(NC(=O)CCC(=O)O)cc1 (centres unmarked),2570
11,"CC[C@@]1(C)C(=O)N(C(=O)NCc2ccccc2)[C@H]1Oc1ccc(C(=O)O)cc1 [(3R,4S)-1-(benzylaminocarbonyl)-3-ethyl-3-methyl-4-(4-carboxy)phenoxyazetidin-2-one]",2000
12,CCCC1(CC)C(=O)N(C(=O)NC(CC)c2ccccc2)C1Oc1ccc(C(=O)CCC(=O)O)cc1 (centres unmarked),87000
13,CCC1(C)C(=O)N(C(=O)NCc2cc(C)c(C(=O)O)c(C)c2)C1Oc1ccc(C(N)=O)cc1 (centres unmarked),30000
14,CCC1(CC)C(=O)N(C(=O)NCc2ccccc2)C1Oc1ccc(NC(C)=O)cc1 (centres unmarked),3500
15,CCC(NC(=O)N1C(=O)C(C)(CC)C1Oc1ccc(C(=O)O)cc1)c1ccsc1 (centres unmarked),78800
16,CCC1(CC)C(=O)N(C(=O)NCC2CCCCC2)C1Oc1ccc(C(=O)O)cc1 (centres unmarked),1420

# More lines, now with the values ahead:
row,kinact/KI [M⁻¹ s⁻¹],SMILES
1,5920,CCC1(CC)C(=O)N(C(=O)NCc2ccc(C(C)=O)cc2)C1Oc1ccc(C(C)=O)cc1 (centres unmarked)
2,5220,CCC1(CC)C(=O)N(C(=O)NCc2ccco2)C1Oc1ccc(C(=O)O)cc1 (centres unmarked)
3,10900,CCC1(CC)C(=O)N(C(=O)NCCCCc2ccccc2)C1Oc1ccc(C(=O)O)cc1 (centres unmarked)
4,2340,CCC1(CC)C(=O)N(C(=O)NCc2ccc(F)cc2)C1Oc1ccc(C(=O)O)cc1 (centres unmarked)
5,2810,CCC1(CC)C(=O)N(C(=O)NCc2ccc(C(=O)O)cc2)C1Oc1ccc(C(C)=O)cc1 (centres unmarked)
6,3280,CCCC1(CC)C(=O)N(C(=O)NCc2ccccc2)C1Oc1ccc(C(=O)O)cc1 (centres unmarked)
7,3420,CCC1(CC)C(=O)N(C(=O)NCc2ccc(Cl)cc2)C1Oc1ccc(C(=O)O)cc1 (centres unmarked)
8,4920,CCC1(CC)C(=O)N(C(=O)NCc2cccs2)C1Oc1ccc(C(=O)O)cc1 (centres unmarked)
9,51000,CCCC1(CC)C(=O)N(C(=O)NCc2ccc3ccccc3c2)C1Oc1ccc(C(=O)O)cc1 (centres unmarked)

# Same assay, conditions: pH 7.5, Table III, (per mole per second); read-out: kobs/I, second order rate constant of inactivation of the enzyme
row,SMILES,kinact/KI [M⁻¹ s⁻¹]
1,CCC1(CC)C(=O)N(C(=O)NCc2ccc(-c3ccccc3)cc2)C1Oc1ccc(CC(=O)O)cc1 (centres unmarked),28900
2,CCC1(CC)C(=O)N(C(=O)NCc2ccc(-c3ccccc3)cc2)C1n1cncn1 (centres unmarked) [Table III: 1-triazolyl; CH2 Ph-4-Ph],2140
3,CCC1(CC)C(=O)N(C(=O)NCc2ccccc2)C1Sc1nnnn1C (centres unmarked),3660
4,C=CCOC1N(C(=O)NCc2ccc(-c3ccccc3)cc2)C(=O)C1(CC)CC (centres unmarked) [Table III: O-(allyl); CH2 Ph-4-Ph],12500
5,CCC1(CC)C(=O)N(C(=O)NCc2ccccc2)C1n1c(=O)cc[nH]c1=O (centres unmarked) [Table III: C00042; CH2 Ph],351
6,CCC1(CC)C(=O)N(C(=O)NCc2ccccc2)C1NC(=O)OC (centres unmarked) [Table III: NHCOOMe; CH2 Ph],496
7,CCC1(CC)C(=O)N(C(=O)NCc2ccccc2)C1Oc1ccccc1CCCN(C)C (centres unmarked) [Table III: O-(2-(CH2)3 NMe2Ph); CH2 Ph],629

# Now from value to molecule:
row,kinact/KI [M⁻¹ s⁻¹],SMILES
1,12000,CCC1(CC)C(=O)N(C(=O)NCc2ccc(OCc3ccccc3)cc2)C1Oc1ccc(C(=O)O)cc1 (centres unmarked)
2,40600,CCC1(CC)C(=O)N(C(=O)NCc2ccc3cc(C(=O)O)ccc3c2)C1Oc1ccc(C(N)=O)cc1 (centres unmarked)
3,2040,CCC1(CC)C(=O)N(C(=O)NCc2ccc(C(=O)N3CCOCC3)cc2)C1Oc1ccc(C(=O)O)cc1 (centres unmarked) [Table III: O-(4-COOHPh); drawing 43]
4,8030,CCC1(CC)C(=O)N(C(=O)NCc2ccc(Cc3ccccc3)cc2)C1Oc1ccc(C(=O)O)cc1 (centres unmarked)
5,21800,CCC1(CC)C(=O)N(C(=O)NCc2ccc(C(C)(C)C)cc2)C1Oc1ccc(C(=O)O)cc1 (centres unmarked) [Table III: O-(4-COOHPh); CH2 Ph(4-tBu)]

# Same assay, conditions: pH 7.5, Table IV, (per mole per second); read-out: kobs/I, second order rate constant of inactivation of the enzyme
row,kinact/KI [M⁻¹ s⁻¹],SMILES
1,847000,CCC[C@@H](NC(=O)N1C(=O)C(CC)(CC)C1Oc1ccc(CC(=O)O)cc1)c1ccc2occc2c1 (some centres unmarked)
2,10100,CCC1C(=O)N(C(=O)N2CCc3ccccc3C2)C1Oc1ccc(C(=O)O)cc1 (centres unmarked) [Table IV: C2 H5; H; O-(4-COOHPh); drawing 46]
3,14300,CCOC(=O)c1ccc(COC(=O)N2C(=O)C(CC)(CC)C2Oc2ccc(C(=O)O)cc2)cc1 (centres unmarked)

# Same assay, conditions: pH 7.5, Table V, (per mole per second); read-out: kobs/I, second order rate constant of inactivation of the enzyme
row,kinact/KI [M⁻¹ s⁻¹],SMILES
1,140000,CC[C@@H](NC(=O)N1C(=O)C(CC)(CC)[C@@H]1Oc1ccc(CC(=O)O)cc1)c1ccccc1 [Table V: 4-CH2 COOH; Et; H]
2,227000,CCC[C@@H](NC(=O)N1C(=O)C(CC)(CC)[C@@H]1Oc1ccc(CC(=O)O)cc1)c1ccccc1 [Table V: 4-CH2 COOH; nPr; H]

# Same assay, conditions: pH 7.5, Table VI, (per mole per second); read-out: kobs/I, second order rate constant of inactivation of the enzyme
row,SMILES,kinact/KI [M⁻¹ s⁻¹]
1,"CCC[C@@H](NC(=O)N1C(=O)C(CC)(CC)[C@@H]1Oc1ccc(CC(=O)O)c(C)c1)c1ccc(C)cc1 [Table VI: 3-Me,4-CH2 COOH; nPr; 4-Me]",998000
2,CCC1(CC)C(=O)N(C(=O)N[C@@H](COC)c2ccccc2)[C@H]1Oc1ccc(CC(=O)O)cc1 [Table VI: 4-CH2 COOH; CH2 OMe(R); H],11000
3,"CCC[C@@H](NC(=O)N1C(=O)C(CC)(CC)[C@@H]1Oc1ccc(C(=O)O)c(C)c1)c1ccc(C)cc1 [Table VI: 3-Me,4-COOH; nPr; 4-Me, (4S)-3,3-diethyl-1-[(R)-α-n-propyl-(4-methyl)benzylaminocarbonyl]-4-[(4-carboxy-3-methyl)phenoxy]azetidin-2-one]",186000
4,CCC1(CC)C(=O)N(C(=O)N[C@H](c2ccccc2)c2ccc(-c3ccccc3)cc2)[C@H]1Oc1ccc(C(=O)O)cc1 [Table VI: 4-COOH; Ph; 4-Ph],67800
5,"CC[C@@H](NC(=O)N1C(=O)C(CC)(CC)[C@@H]1Oc1cc(C)c(C(=O)O)c(C)c1)c1ccccc1 [Table VI: 3,5-Me2-4-COOH; Et; H]",25000

# Next, values leading:
row,kinact/KI [M⁻¹ s⁻¹],SMILES
1,389000,"CCC[C@@H](NC(=O)N1C(=O)C(CC)(CC)[C@@H]1Oc1ccc(C(=O)O)cc1)c1ccc(C)cc1 [Table VI: 4-COOH; nPr; 4-Me, (4S)-3,3-diethyl-1-[(R)-α-n-propyl-(4-methyl)-benzylaminocarbonyl]-4-[(4-carboxy)phenoxy]azetidin-2-one]"
2,76200,CC[C@@H](NC(=O)N1C(=O)C(CC)(CC)[C@@H]1Oc1ccc(C(=O)O)cc1)c1ccccc1 [Table VI: 4-COOH; Et; H]
3,557000,"CCC[C@@H](NC(=O)N1C(=O)C(CC)(CC)[C@@H]1Oc1ccc(CC(=O)O)cc1)c1ccc(C)cc1 [Table VI: 4-CH2 COOH; nPr; 4-Me, (4S)-3,3-diethyl-1-[(R)-α-n-propyl-(4-methyl)-benzylaminocarbonyl]-4-[(4-carboxymethyl)-phenoxy]azetidin-2-one]"
4,6980,CCC1(CC)C(=O)N(C(=O)N[C@@H](COC)c2ccccc2)[C@H]1Oc1ccc(C(=O)O)cc1 [Table VI: 4-COOH; CH2 OMe(R); H]

# Same assay, conditions: pH 7.5, read-out: kobs/I, second order rate constant of inactivation of the enzyme
row,SMILES,kinact/KI [M⁻¹ s⁻¹]
1,CCOC(=O)N1C(=O)[C@H](CC)[C@H]1Oc1ccc(C(=O)O)cc1 (relative stereo),8680
2,CC[C@H]1C(=O)N(S(=O)(=O)c2ccc(C)cc2)[C@H]1C(=O)OCc1ccc(C(=O)O)cc1 (relative stereo),299
3,CCC1C(=O)N(C(=O)c2ccccc2)C1C(C)=O (stereo not drawn) [Table I: H; C2 H5 (trans); COCH3; COPh],76600
4,CC[C@H]1C(=O)N(C(C)=O)[C@@H]1Oc1ccc(C(=O)O)cc1 (relative stereo),8730
